Experimental data as given in ChEMBL document CHEMBL1909046, “DrugMatrix in vitro pharmacology data”.

Tests used:
Cathepsin G = target: T1, Cathepsin G (Homo sapiens, UniProt P08311); experiment: biochemical; format: tissue-based, Neutrophil; conditions: neutrophil;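 further: inhibition of Cathepsin G enzyme activity, tested on an AMC-conjugated peptide substrate; in other assays of this panel Not Active means under 50% inhibition at 10 µM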
T1 sequence (P08311 whole entry): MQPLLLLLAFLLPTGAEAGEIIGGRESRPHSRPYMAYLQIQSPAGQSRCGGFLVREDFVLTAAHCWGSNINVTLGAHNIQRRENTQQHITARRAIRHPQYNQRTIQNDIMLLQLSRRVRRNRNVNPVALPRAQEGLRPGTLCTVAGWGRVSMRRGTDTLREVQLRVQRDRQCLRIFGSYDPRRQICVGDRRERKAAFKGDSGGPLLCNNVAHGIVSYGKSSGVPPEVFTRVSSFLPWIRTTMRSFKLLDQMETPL

Cytochrome P450 3A4 = Cytochrome P450 3A4 (Homo sapiens, UniProt P08684); conditions: bti-tn-5b1-4; further: in other assays of this panel Not Active means under 50% inhibition at 10 µM
Chain of Cytochrome P450 3A4 (P08684 whole entry): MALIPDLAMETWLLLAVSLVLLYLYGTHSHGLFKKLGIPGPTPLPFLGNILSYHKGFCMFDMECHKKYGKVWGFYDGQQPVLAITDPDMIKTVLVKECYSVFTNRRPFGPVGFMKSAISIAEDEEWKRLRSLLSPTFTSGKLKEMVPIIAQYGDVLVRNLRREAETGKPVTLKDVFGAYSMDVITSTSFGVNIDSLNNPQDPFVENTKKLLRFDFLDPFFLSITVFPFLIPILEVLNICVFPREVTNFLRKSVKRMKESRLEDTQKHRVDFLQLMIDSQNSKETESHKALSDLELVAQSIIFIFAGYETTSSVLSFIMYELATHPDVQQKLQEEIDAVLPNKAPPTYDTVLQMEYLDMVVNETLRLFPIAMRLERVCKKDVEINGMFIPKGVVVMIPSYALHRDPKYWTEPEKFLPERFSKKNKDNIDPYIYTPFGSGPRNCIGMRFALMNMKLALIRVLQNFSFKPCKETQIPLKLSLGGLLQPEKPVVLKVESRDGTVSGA

Mu-type opioid receptor = Mu-type opioid receptor (Homo sapiens, UniProt P35372); experiment: DRUGMATRIX: Opiate mu (OP3, MOP) radioligand binding (ligand: [3H] Diprenorphine); format: cell membranes, CHO-K1, Membrane; conditions: cho-k1; Not Active = under 50% inhibition at 10 µM
Chain of Mu-type opioid receptor (P35372 whole entry): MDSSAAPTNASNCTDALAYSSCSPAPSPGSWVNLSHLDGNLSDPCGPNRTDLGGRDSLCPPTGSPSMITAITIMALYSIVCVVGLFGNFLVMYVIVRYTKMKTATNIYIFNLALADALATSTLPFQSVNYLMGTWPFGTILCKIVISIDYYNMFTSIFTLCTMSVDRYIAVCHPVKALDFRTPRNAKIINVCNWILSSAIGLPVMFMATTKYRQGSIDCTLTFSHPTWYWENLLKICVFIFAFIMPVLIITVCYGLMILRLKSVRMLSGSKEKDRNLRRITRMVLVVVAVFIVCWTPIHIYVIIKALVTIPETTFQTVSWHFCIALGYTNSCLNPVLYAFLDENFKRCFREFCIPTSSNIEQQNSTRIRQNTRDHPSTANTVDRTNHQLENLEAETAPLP

Insulin receptor = Insulin receptor (Rattus norvegicus, UniProt P15127); format: cell membranes, Wistar, Liver, Membrane; further: in other assays of this panel Not Active means under 50% inhibition at 10 µM
Chain of Insulin receptor (P15127 27-759 limits assumed): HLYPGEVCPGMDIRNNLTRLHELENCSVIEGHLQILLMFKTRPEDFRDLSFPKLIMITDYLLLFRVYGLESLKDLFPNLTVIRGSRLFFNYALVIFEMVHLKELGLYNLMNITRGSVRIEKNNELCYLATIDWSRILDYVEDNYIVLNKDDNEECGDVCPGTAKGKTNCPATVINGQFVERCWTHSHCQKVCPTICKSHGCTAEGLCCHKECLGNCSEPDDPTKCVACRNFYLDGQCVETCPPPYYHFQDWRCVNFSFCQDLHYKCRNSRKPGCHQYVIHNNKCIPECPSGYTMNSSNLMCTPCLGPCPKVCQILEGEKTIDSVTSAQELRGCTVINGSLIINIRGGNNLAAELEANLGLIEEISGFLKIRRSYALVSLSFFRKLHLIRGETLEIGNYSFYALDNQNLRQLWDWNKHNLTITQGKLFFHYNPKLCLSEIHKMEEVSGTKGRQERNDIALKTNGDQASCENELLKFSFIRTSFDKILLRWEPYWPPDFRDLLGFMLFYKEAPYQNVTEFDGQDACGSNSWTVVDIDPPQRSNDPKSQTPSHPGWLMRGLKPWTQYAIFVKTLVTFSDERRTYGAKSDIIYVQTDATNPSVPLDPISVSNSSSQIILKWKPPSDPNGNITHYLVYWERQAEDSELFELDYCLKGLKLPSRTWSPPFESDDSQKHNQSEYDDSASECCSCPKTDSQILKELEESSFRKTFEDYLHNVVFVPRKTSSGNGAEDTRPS
Chain of Insulin receptor (P15127 764-1383 limits assumed): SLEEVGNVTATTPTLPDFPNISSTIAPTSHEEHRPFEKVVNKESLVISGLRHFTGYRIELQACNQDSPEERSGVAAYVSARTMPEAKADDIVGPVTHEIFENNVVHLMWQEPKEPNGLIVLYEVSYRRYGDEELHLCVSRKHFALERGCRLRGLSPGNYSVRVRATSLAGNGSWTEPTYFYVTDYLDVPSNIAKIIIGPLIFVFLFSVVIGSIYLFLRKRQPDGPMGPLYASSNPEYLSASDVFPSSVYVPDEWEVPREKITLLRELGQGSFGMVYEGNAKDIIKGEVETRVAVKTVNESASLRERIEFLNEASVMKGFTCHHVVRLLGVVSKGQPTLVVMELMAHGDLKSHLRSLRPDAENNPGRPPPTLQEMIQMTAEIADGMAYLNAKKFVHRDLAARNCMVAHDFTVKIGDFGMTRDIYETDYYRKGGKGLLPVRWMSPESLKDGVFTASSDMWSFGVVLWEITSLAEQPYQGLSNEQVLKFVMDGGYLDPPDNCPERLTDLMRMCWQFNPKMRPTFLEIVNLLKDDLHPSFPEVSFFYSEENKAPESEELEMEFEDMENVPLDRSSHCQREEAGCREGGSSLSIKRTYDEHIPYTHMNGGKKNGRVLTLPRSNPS

Estrogen receptor = target: T2, Estrogen receptor (Homo sapiens, UniProt P03372); conditions: sf9; further: in other assays of this panel Not Active means under 50% inhibition at 10 µM
T2 sequence (P03372 whole entry): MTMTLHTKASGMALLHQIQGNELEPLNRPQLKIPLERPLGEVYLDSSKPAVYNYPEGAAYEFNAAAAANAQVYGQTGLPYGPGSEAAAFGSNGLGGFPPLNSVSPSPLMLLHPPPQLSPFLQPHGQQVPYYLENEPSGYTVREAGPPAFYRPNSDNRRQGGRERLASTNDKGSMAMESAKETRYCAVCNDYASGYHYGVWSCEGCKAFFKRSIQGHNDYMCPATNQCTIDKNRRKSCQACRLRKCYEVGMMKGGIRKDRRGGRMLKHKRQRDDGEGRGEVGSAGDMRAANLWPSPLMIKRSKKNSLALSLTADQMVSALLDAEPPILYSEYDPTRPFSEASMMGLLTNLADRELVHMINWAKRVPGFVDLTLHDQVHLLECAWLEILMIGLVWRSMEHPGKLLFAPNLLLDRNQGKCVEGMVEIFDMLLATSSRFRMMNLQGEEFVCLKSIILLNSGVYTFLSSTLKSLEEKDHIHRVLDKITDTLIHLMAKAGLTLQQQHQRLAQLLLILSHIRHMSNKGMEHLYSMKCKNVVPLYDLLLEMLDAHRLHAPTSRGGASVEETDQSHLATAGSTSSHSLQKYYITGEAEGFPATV

[1] = DRUGMATRIX: Calcium Channel Type L, Dihydropyridine radioligand binding (ligand: [3H] Nitrendipine); format: cell membranes, Rattus norvegicus, Wistar, Cerebral cortex, Membrane; conditions: Not Active = under 50% inhibition at 10 µM
[2] = target: T3, C-C chemokine receptor type 4 (Homo sapiens, UniProt P51679); format: cell membranes, Chem-1, Membrane; conditions: chem-1; further: in other assays of this panel Not Active means under 50% inhibition at 10 µM
T3 sequence (P51679 whole entry): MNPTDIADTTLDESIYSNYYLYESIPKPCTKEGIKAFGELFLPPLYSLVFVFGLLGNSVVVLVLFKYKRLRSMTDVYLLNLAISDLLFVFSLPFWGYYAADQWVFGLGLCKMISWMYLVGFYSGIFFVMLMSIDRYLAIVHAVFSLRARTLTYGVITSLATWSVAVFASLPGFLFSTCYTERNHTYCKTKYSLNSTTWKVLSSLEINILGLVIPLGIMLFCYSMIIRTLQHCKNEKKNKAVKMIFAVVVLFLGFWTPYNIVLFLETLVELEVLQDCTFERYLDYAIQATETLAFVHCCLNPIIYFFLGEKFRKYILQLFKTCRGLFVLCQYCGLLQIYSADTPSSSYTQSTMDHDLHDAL

Adenosine receptor A1 = target: T4, Adenosine receptor A1 (Homo sapiens, UniProt P30542); format: cell membranes, CHO, Membrane
T4 sequence (P30542 whole entry): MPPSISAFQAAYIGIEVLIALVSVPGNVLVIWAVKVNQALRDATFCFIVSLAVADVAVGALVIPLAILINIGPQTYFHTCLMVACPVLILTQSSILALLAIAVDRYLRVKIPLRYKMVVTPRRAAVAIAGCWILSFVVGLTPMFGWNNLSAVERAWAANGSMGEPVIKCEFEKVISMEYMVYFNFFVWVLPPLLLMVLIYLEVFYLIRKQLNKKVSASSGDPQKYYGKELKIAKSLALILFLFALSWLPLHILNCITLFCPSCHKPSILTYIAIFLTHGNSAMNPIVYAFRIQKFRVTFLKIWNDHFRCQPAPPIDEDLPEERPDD

SMILES | IC50 (Cathepsin G) | IC50 (Cytochrome P450 3A4) | Ki (Cytochrome P450 3A4) | IC50 (Mu-type opioid receptor) | IC50 (Insulin receptor) | IC50 (Estrogen receptor) | IC50 [1] | Ki [1] | IC50 [2] | IC50 (Adenosine receptor A1; cho) | IC50 (Adenosine receptor A1; read-out: IC50) | Ki (Adenosine receptor A1; read-out: Ki)
c1ccc2c(c1)Nc1ccccc1S2 [PHENOTHIAZINE] | Not Active | Not Active | Not Active | Not Active | Not Active | Not Active | Not Active | Not Active | Not Active | Not Active | – | –
c1ccc(Cn2ccnc2)cc1 | Not Active | Not Active | Not Active | Not Active | Not Active | Not Active | Not Active | Not Active | Not Active | Not Active | – | –
CC(C)Cn1cnc2c(N)nc3ccccc3c21 [IMIQUIMOD] | Not Active | Not Active | Not Active | Not Active | Not Active | Not Active | Not Active | Not Active | Not Active | Not Active | – | –
OC[C@H]1OC2C3[C@@H](CO)OC(O[C@H]4[C@H](O)[C@@H](O)[C@@H](O[C@H]5[C@H](O)[C@@H](O)[C@@H](O[C@H]6[C@H](O)[C@@H](O)[C@@H](O[C@H]7[C@H](O)[C@@H](O)[C@@H](O[C@H]8[C@H](O)[C@@H](O)[C@@H](O[C@H]9[C@H](O)[C@@H](O)C(OC1[C@H](O)[C@H]2O)O[C@@H]9CO)O[C@@H]8CO)O[C@@H]7CO)O[C@@H]6CO)O[C@@H]5CO)O[C@@H]4CO)[C@H](O)[C@H]3O | Not Active | Not Active | Not Active | Not Active | Not Active | Not Active | Not Active | Not Active | Not Active | Not Active | – | –
COc1cc(/C=C/C(=O)O)ccc1O [FERULATE] | Not Active | Not Active | Not Active | Not Active | Not Active | Not Active | Not Active | Not Active | Not Active | Not Active | – | –
CO[C@H]1O[C@@H]2O[C@@]3(C)CC[C@H]4[C@H](C)CC[C@@H]([C@H]1C)[C@@]24OO3 | Not Active | Not Active | Not Active | Not Active | Not Active | Not Active | Not Active | Not Active | Not Active | Not Active | – | –
C[C@@H]1[C@H](O)[C@@H](C)/C=C/C=C/C=C/C=C/C=C/C=C/C=C/[C@H](O[C@@H]2O[C@H](C)[C@@H](O)[C@H](N)[C@@H]2O)C[C@@H]2O[C@](O)(C[C@@H](O)C[C@@H](O)[C@H](O)CC[C@@H](O)C[C@@H](O)CC(=O)O[C@H]1C)C[C@H](O)[C@H]2C(=O)O [AMPHOTERICIN B] | Not Active | Not Active | Not Active | Not Active | Not Active | Not Active | Not Active | Not Active | Not Active | Not Active | – | –
Oc1ncnc2[nH]ncc12 [ALLOPURINOL] | Not Active | Not Active | Not Active | Not Active | Not Active | Not Active | Not Active | Not Active | Not Active | Not Active | – | –
Cc1c(N)nc([C@H](CC(N)=O)NC[C@H](N)C(N)=O)nc1C(=O)N[C@H](C(=O)N[C@H](C)[C@@H](O)[C@H](C)C(=O)N[C@H](C(=O)NCCc1nc(-c2nc(C(=O)NCCC[S+](C)C)cs2)cs1)[C@@H](C)O)[C@@H](O[C@@H]1O[C@@H](CO)[C@@H](O)[C@H](O)[C@@H]1O[C@H]1O[C@H](CO)[C@@H](O)[C@H](OC(N)=O)[C@@H]1O)c1c[nH]cn1.[Br-] [BLEOMYCIN A2] | Not Active | Not Active | Not Active | Not Active | Not Active | Not Active | Not Active | Not Active | Not Active | Not Active | – | –
CN(Cc1cc(Br)cc(Br)c1N)C1CCCCC1 [BROMHEXINE] | Not Active | Not Active | Not Active | Not Active | Not Active | Not Active | Not Active | Not Active | Not Active | Not Active | – | –
O=C(O)c1ccccc1 [BENZOIC ACID] | Not Active | Not Active | Not Active | Not Active | Not Active | Not Active | Not Active | Not Active | Not Active | Not Active | – | –
CC(=O)Nc1ccc2c(c1)Cc1ccccc1-2 [2-ACETYLAMINOFLUORENE] | Not Active | Not Active | Not Active | Not Active | Not Active | Not Active | Not Active | Not Active | Not Active | Not Active | – | –
C[C@H](C(=O)O)c1ccc2oc(-c3ccc(F)cc3)nc2c1 [FLUNOXAPROFEN] | Not Active | Not Active | Not Active | Not Active | Not Active | Not Active | Not Active | Not Active | Not Active | Not Active | – | –
CN(CCOc1ccc(C[C@H](Nc2ccccc2C(=O)c2ccccc2)C(=O)O)cc1)c1ccccn1 | Not Active | Not Active | Not Active | Not Active | Not Active | Not Active | Not Active | Not Active | Not Active | – | 15 µM | 8.73 µM
C[N+](C)(C)CCOP(=O)([O-])OC[C@H](O)CO | Not Active | Not Active | Not Active | Not Active | Not Active | Not Active | Not Active | Not Active | Not Active | Not Active | – | –
O=C(Nc1ccc(Cl)c(Cl)c1)c1cc(Cl)cc(Cl)c1O [3,3',4',5-TETRACHLOROSALICYLANILIDE] | Not Active | Not Active | Not Active | Not Active | Not Active | Not Active | Not Active | Not Active | Not Active | Not Active | – | –
O=C(O)COC(=O)Cc1ccccc1Nc1c(Cl)cccc1Cl [ACECLOFENAC] | Not Active | Not Active | Not Active | Not Active | Not Active | Not Active | Not Active | Not Active | Not Active | Not Active | – | –
O=c1[nH]c2ccccc2c2ccccc12 | Not Active | Not Active | Not Active | Not Active | Not Active | Not Active | Not Active | Not Active | Not Active | Not Active | – | –
CCO [ALCOHOL] | Not Active | Not Active | Not Active | Not Active | Not Active | Not Active | Not Active | Not Active | Not Active | Not Active | – | –
